Source: patent US20240260573A1, “HEAT TOLERANCE-INDUCING AGENT FOR PLANTS AND METHOD FOR INDUCING HEAT TOLERANCE OF PLANTS” (AGC Inc., priority 2021, published 2024)

Assays:
[1] = Measurement of active ingredient support ratio (solvent extraction / gas chromatography); format: physicochemical
Experimental: First, 5 g of a mixed solvent of chloroform:methanol=9:1 (volume ratio) was added to the vial containing the sample, and the mixture was stirred for one minute to extract the supported 2-hexenal. Hexadecane was then added as an internal standard, and the resulting mixture was filtered. The thus obtained filtrate (the extract solution containing the internal standard) was analyzed by gas chromatography, and the amount (mg) of supported 2-hexenal was calculated using a calibration curve prepared in advance using hexadecane as an internal standard. The support ratio (%) of 2-hexenal within 100% of the sample was determined from the calculated supported amount (mg) and the mass of the sample inside the vial.
With the exception that chloroform was added to the vial containing the sample to dissolve the sample, hexadecane was added to the resulting solution as an internal standard, and analysis was then conducted by gas chromatography (7890A apparatus manufactured by Agilent Technologies, Inc.), the support ratio (%) of 2-hexenal within 100% of the sample was determined in the same manner as that described above in [Evaluation 1a].
In Example 12, because 2-hexenal was used alone, the initial 2-hexenal support ratio was deemed to be 100%.
With the exception of using 3-hepten-2-one instead of 2-hexenal as the active ingredient, evaluations were conducted in the same manner as Example 1. […]

[2] = Measurement of active ingredient retention rate after 7 days open storage at 23° C. or 50° C.; format: physicochemical; conditions: for residual active ingredient after storage (in words): after 7 days storage at either 23° C. or 50° C.
Experimental: The vial containing the sample was stored, without a lid attached, in an environment at either 23° C. or 50° C. for a period of 7 days. Following this storage period, the support ratio (%) of 2-hexenal was determined in the same manner as that described above in [Evaluation 1a].
Based on the measurement results, the 2-hexenal retention rates following storage at 23° C. and at 50° C. were each calculated using the formula below. In the formula, the [initial 2-hexenal content] represents the value determined in the above “Measurement of 2-Hexenal Support Ratio”.
2-Hexenal retention rate (%)=2-hexenal support ratio (%) after storage/initial 2-hexenal support ratio (%)×100
The vial containing the sample was stored in an environment at either 23° C. or 50° C. for a period of 7 days. Following this storage period, the support ratio (%) of 2-hexenal was determined in the same manner as that described above in [Evaluation 2a].
Based on the measurement result, the 2-hexenal retention rate (%) was determined in the same manner as that described above in [Evaluation 1b].
The vial containing the sample was stored in an environment at either 23° C. or 50° C. for a period of 7 days. Following this storage period, the sample mass (g) remaining in the vial was measured, and this value was deemed the 2-hexenal support ratio (%) after storage.
With the exception of using 3-hepten-2-one instead of 2-hexenal as the active ingredient, evaluations were conducted in the same manner as Example 1.
An agent prepared by mixing trioxane and 3-hepten-2-one (in a mass ratio of 100:0.35) and then freeze drying the mixture was used as a heat tolerance-inducing agent, and evaluations were conducted in the same manner as Example 11.
Example 15 used 3-hepten-2-one alone as a heat tolerance-inducing agent. Evaluations were conducted in the same manner as Example 12.

[3] = sample for 23° C. storage, before storage
[4] = sample for 50° C. storage, before storage

Row | SMILES | 2-hexenal support ratio ([1]; 2-hexenal used alone, initial support ratio deemed to be 100%) | 2-hexenal support amount, Storage at 23° C., After 7 days ([2]; 23° C., 7 days, vial without lid) | 2-hexenal support amount, Storage at 50° C., After 7 days ([2]; 50° C., 7 days, vial without lid) | 2-hexenal retention rate 23° C. ([2]; after 7 days storage at 23° C.) | 2-hexenal retention rate 50° C. ([2]; after 7 days storage at 50° C.) | residual active ingredient after storage (in words) [2] | 2-hexenal support amount, Storage at 23° C., Initial [2, 3] | 2-hexenal support amount, Storage at 50° C., Initial [2, 4] | 3-hepten-2-one support ratio ([1]; 3-hepten-2-one used alone, evaluated as Example 12 (deemed 100%)) | 3-hepten-2-one support amount, Storage at 23° C., After 7 days ([2]; 23° C., 7 days) | 3-hepten-2-one support amount, Storage at 50° C., After 7 days ([2]; 50° C., 7 days) | 3-hepten-2-one retention rate 23° C. ([2]; after 7 days storage at 23° C.) | 3-hepten-2-one retention rate 50° C. ([2]; after 7 days storage at 50° C.) | 3-hepten-2-one support amount, Storage at 23° C., Initial [2, 3] | 3-hepten-2-one support amount, Storage at 50° C., Initial [2, 4]
1 | CCCC=CC=O [Example 12, 2-hexenal] | 100% | 0 mg | 0 mg | 0% | 0% | no residual active ingredient was retained | 13 mg | 12.5 mg | – | – | – | – | – | – | –
2 | CCCC=CC(C)=O [Example 15, 3-hepten-2-one] | – | – | – | – | – | no residual active ingredient was retained | – | – | 100% | 0 mg | 0 mg | 0% | 0% | 11.5 mg | 10.7 mg
